Data reported in ChEMBL document CHEMBL6182891, “Discovery of novel 1,2,3-Triazole hybrids derivatives as vasorelaxant agents: Molecular structure, Hirshfeld surface, in-vivo and in-silico investigation by molecular docking simulation” (Eur J Med Chem, 2025).

How the values were obtained:
Aorta [1] = experiment: Vasorelaxant activity in endothelium-intact thoracic aortic rings of albino adult male Wistar rat assessed as reduction in epinephrine-induced contracture; assay type: functional, tissue-based
Aorta [2] = experiment: Vasorelaxant activity in endothelium-intact thoracic aortic rings of albino adult male Wistar rat assessed as reduction in epinephrine-induced contracture at 0.05 to 0.2 mg/ml relative to control; assay type: functional; conditions: dose 0.05-0.2 mg/ml

Structure (SMILES)	EC50 (Aorta [1]) [µM]	Emax (Aorta [2]) [%]
O=C(Cn1cc(COC(Cn2cnc3ccccc3c2=O)c2ccccc2)nn1)Nc1ccc(F)cc1 (centres undefined)	345	48.2
O=C(Cn1cc(COC(Cn2cnc3ccccc3c2=O)c2ccccc2)nn1)Nc1ccc(Cl)cc1 (centres undefined)	198	95.1
COc1ccc(NC(=O)Cn2cc(COC(Cn3cnc4ccccc4c3=O)c3ccccc3)nn2)cc1 (centres undefined)	387	50.9
COc1ccc(CCN(C)CCCC(C#N)(c2ccc(OC)c(OC)c2)C(C)C)cc1OC (centres undefined) [VERAPAMIL]	39	61.7

Continued, in another order:

EC50 (Aorta [1]) [µM]	Structure (SMILES)	Emax (Aorta [2]) [%]
568	O=C(Cn1cc(COC(Cn2cnc3ccccc3c2=O)c2ccccc2)nn1)Nc1ccccc1 (centres undefined)	35
246	Cc1ccccc1NC(=O)Cn1cc(COC(Cn2cnc3ccccc3c2=O)c2ccccc2)nn1 (centres undefined)	93.5
1040	Cc1ccc(NC(=O)Cn2cc(COC(Cn3cnc4ccccc4c3=O)c3ccccc3)nn2)cc1 (centres undefined)	16.4
